Test results reported in patent US8637499B2, “Benzoxazepines as inhibitors of PI3K/mTOR and methods of their use and manufacture” (Exelixis, Inc., priority 2009, dated 2014).

What was measured:
[1] = biological target: mTORC1 (mTOR/GbL/Raptor) (Homo sapiens, UniProt P42345); assay: mTOR/GbL/Raptor (mTORC1) ELISA Assay; format: biochemical; conditions: 0.2 nM mTORC1, 10 μM ATP, 50 nM NHis-tagged 4E-BP1; phosphorylation of 4E-BP1; read-out: IC50
How it was run: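 Detection used Ni-chelate capture of His-tagged 4E-BP1, then anti-phospho-4E-BP1 and HRP anti-IgG with luminescent ELISA substrate. Reactions ran 120 min at ambient temperature with 0.2 nM mTORC1, 10 μM ATP, 50 nM 4E-BP1, 10 mM MnCl2, pH 7.2 Hepes.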

[2] = biological target: PI3Kα (Homo sapiens, UniProt P42336); assay: PI3K Biochemical Assays (ATP consumption, luciferase-luciferin chemiluminescence); conditions: PI3Kα 1.5 nM, ATP 1 μM, PIP2 10 μM; percent of ATP consumed
How it was run: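 Enzyme (1.5 nM), PIP2 substrate (10 μM) and ATP (1 μM) react about 2 h at room temperature in Tris buffer pH 7.5 with MgCl2, EGTA, DTT and CHAPS. Remaining ATP detected by Kinase-Glo luminescence; total consumption limited to 40-60%.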

Sequence of PI3Kα (P42336 whole entry): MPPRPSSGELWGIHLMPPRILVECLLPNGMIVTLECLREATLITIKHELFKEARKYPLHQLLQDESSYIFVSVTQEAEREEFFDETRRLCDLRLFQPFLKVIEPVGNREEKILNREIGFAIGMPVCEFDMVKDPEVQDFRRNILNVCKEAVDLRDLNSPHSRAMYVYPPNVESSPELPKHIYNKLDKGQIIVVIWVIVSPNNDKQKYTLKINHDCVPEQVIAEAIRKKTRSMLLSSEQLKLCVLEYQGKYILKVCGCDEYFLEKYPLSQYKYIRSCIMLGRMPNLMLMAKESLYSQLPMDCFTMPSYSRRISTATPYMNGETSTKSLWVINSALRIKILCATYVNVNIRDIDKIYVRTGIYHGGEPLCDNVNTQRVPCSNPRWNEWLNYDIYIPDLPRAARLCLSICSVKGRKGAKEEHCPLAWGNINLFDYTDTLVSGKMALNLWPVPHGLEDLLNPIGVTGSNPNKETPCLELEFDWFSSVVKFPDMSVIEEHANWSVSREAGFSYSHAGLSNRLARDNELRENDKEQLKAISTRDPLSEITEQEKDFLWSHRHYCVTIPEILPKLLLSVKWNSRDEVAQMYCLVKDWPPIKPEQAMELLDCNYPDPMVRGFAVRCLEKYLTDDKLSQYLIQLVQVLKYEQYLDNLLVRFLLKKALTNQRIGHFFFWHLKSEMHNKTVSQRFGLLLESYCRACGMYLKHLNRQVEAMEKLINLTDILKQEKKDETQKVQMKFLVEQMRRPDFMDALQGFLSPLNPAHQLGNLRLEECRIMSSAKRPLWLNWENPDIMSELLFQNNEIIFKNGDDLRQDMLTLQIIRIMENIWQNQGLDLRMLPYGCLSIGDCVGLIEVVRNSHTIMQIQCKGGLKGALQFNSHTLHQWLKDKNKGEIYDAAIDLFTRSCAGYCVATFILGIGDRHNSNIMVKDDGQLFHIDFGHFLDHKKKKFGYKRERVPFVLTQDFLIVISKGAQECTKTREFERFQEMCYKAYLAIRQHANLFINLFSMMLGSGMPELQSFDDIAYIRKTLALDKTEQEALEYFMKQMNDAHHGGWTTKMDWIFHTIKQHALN
Sequence of PI3Kα (P27986 whole entry partner): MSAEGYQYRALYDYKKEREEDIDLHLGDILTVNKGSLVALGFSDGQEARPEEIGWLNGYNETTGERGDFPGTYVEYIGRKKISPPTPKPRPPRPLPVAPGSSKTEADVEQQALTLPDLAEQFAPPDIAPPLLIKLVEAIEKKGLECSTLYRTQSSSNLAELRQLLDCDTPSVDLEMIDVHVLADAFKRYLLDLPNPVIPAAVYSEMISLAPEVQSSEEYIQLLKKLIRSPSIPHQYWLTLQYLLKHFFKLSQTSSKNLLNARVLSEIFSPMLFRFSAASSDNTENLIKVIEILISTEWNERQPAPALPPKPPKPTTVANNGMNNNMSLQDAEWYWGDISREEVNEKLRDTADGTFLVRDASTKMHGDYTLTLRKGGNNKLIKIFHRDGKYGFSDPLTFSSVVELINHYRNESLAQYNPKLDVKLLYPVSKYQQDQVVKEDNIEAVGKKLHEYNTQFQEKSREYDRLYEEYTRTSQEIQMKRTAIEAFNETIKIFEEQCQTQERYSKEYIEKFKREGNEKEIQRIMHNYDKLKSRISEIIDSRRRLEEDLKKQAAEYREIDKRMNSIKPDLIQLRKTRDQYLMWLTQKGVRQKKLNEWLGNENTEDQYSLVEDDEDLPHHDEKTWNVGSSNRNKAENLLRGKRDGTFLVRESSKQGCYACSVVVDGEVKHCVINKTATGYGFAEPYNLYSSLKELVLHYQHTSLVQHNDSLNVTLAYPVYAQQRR

SMILES: Cc1nc2ccc(-c3ccc4c(c3)CN(C(=O)N3CCCCC3c3ccc(C(F)(F)F)cc3)CCO4)cc2[nH]1 (centres unmarked) [Compound 120, 7-(2-methyl-1H-benzimidazol-6-yl)-4-({2-[4-(trifluoromethyl)phenyl]piperidin-1-yl}carbonyl)-2,3,4,5-tetrahydro-1,4-benzoxazepine]
- IC50 [1]: ≤ 50 nM
- IC50 [2]: 200 to 500 nM

SMILES: NC(=O)C1CCN(C(=O)N2CCOc3ccc(-c4cnc5nc(N)[nH]c5c4)cc3C2)CC1 [Compound 47, 1-{[7-(2-amino-1H-imidazo[4,5-b]pyridin-6-yl)-2,3-dihydro-1,4-benzoxazepin-4(5H)-yl]carbonyl}piperidine-4-carboxamide]
- IC50 [1]: ≤ 50 nM
- IC50 [2]: ≤ 75 nM

SMILES: Cc1nc2ccc(-c3ccc4c(c3)CN(C(=O)N3CC[C@@H](C#N)C[C@@H]3c3ccc(F)c(F)c3)CCO4)cc2[nH]1 (racemic) [Compound 148, (±)-(2R,4R)-2-(3,4-difluorophenyl)-1-{[7-(2-methyl-1H-benzimidazol-6-yl)-2,3-dihydro-1,4-benzoxazepin-4(5H)-yl]carbonyl}piperidine-4-carbonitrile]
- IC50 [1]: 50 to 250 nM
- IC50 [2]: 200 to 500 nM

SMILES: COC(=O)Nc1nc2cc(-c3ccc4c(c3)CN(C(=O)N3CC[C@H](O)C[C@@H]3c3ccc(F)cc3)CCO4)ccc2[nH]1 (racemic) [Compound 17, (±)-methyl [5-(4-{[(2R,4S)-2-(4-fluorophenyl)-4-hydroxypiperidin-1-yl]carbonyl}-2,3,4,5-tetrahydro-1,4-benzoxazepin-7-yl)-1H-benzimidazol-2-yl]carbamate]
- IC50 [1]: 700 to 2600 nM
- IC50 [2]: 75 to 200 nM

SMILES: CS(=O)(=O)Nc1cc(-c2ccc3c(c2)CN(C(=O)N2C4CCC2CC(O)(C(F)(F)F)C4)CCO3)cnc1Cl (centres unmarked) [Compound 181, N-[2-chloro-5-(4-{[3-hydroxy-3-(trifluoromethyl)-8-azabicyclo[3.2.1]oct-8-yl]carbonyl}-2,3,4,5-tetrahydro-1,4-benzoxazepin-7-yl)pyridin-3-yl]methanesulfonamide]
- IC50 [1]: ≤ 50 nM
- IC50 [2]: ≤ 75 nM

SMILES: O=C1CCN(C(=O)N2CCOc3ccc(-c4ccc(-c5ncc[nH]5)cc4)cc3C2)[C@@H](c2ccc(F)cc2)C1 [Compound 56, (2R)-2-(4-fluorophenyl)-1-({7-[4-(1H-imidazol-2-yl)phenyl]-2,3-dihydro-1,4-benzoxazepin-4(5H)-yl}carbonyl)piperidin-4-one]
- IC50 [1]: ≤ 50 nM
- IC50 [2]: ≤ 75 nM

SMILES: Cc1nc2ccc(-c3ccc4c(c3)CN(C(=O)N3CCCCC3c3ccc(F)c(Cl)c3)CCO4)cc2[nH]1 (centres unmarked) [Compound 128, 4-{[2-(3-chloro-4-fluorophenyl)piperidin-1-yl]carbonyl}-7-(2-methyl-1H-benzimidazol-6-yl)-2,3,4,5-tetrahydro-1,4-benzoxazepine]
- IC50 [1]: ≤ 50 nM
- IC50 [2]: 75 to 200 nM

SMILES: Cc1nc2ccc(-c3ccc4c(c3)CN(C(=O)N3CC5CN(c6ccccc6)CC5C3)CCO4)cc2[nH]1 (centres unmarked) [Compound 110, 7-(2-methyl-1H-benzimidazol-6-yl)-4-[(5-phenylhexahydropyrrolo[3,4-c]pyrrol-2(1H)-yl)carbonyl]-2,3,4,5-tetrahydro-1,4-benzoxazepine]
- IC50 [1]: 250 to 700 nM
- IC50 [2]: 200 to 500 nM

SMILES: COC(=O)Nc1nc2ncc(-c3ccc4c(c3)CN(C(=O)N3CCC(C(C)(F)F)CC3)CCO4)cc2[nH]1 [Compound 34, methyl [6-(4-{[4-(1,1-difluoroethyl)piperidin-1-yl]carbonyl}-2,3,4,5-tetrahydro-1,4-benzoxazepin-7-yl)-1H-imidazo[4,5-b]pyridin-2-yl]carbamate]
- IC50 [1]: ≤ 50 nM
- IC50 [2]: ≤ 75 nM

SMILES: Cc1nc2ccc(-c3ccc4c(c3)CN(C(=O)N3CCCCC3c3cc(F)cc(F)c3)CCO4)cc2[nH]1 (centres unmarked) [Compound 130, 4-{[2-(3,5-difluorophenyl)piperidin-1-yl]carbonyl}-7-(2-methyl-1H-benzimidazol-6-yl)-2,3,4,5-tetrahydro-1,4-benzoxazepine]
- IC50 [1]: ≤ 50 nM
- IC50 [2]: ≤ 75 nM

SMILES: Cc1nc2ccc(-c3ccc4c(c3)CN(C(=O)N3CCC(C)(F)CC3)CCO4)cc2[nH]1 [Compound 83, 4-[(4-fluoro-4-methylpiperidin-1-yl)carbonyl]-7-(2-methyl-1H-benzimidazol-6-yl)-2,3,4,5-tetrahydro-1,4-benzoxazepine]
- IC50 [1]: 50 to 250 nM
- IC50 [2]: 1000 to 3000 nM

SMILES: Cc1nc2ccc(-c3ccc4c(c3)CN(C(=O)N3CCCC3Cc3ccccc3)CCO4)cc2[nH]1 (centres unmarked) [Compound 94, 7-(2-methyl-1H-benzimidazol-6-yl)-4-{[2-(phenylmethyl)pyrrolidin-1-yl]carbonyl}-2,3,4,5-tetrahydro-1,4-benzoxazepine]
- IC50 [1]: 50 to 250 nM
- IC50 [2]: 1000 to 3000 nM

SMILES: COC(=O)Nc1nc2ccc(-c3ccc4c(c3)CN(C(=O)N3CCC(=O)CC3c3cccc(F)c3)CCO4)cc2[nH]1 (centres unmarked) [Compound 11, methyl [6-(4-{[2-(3-fluorophenyl)-4-oxopiperidin-1-yl]carbonyl}-2,3,4,5-tetrahydro-1,4-benzoxazepin-7-yl)-1H-benzimidazol-2-yl]carbamate]
- IC50 [1]: 50 to 250 nM
- IC50 [2]: ≤ 75 nM

SMILES: COC(=O)Nc1nc2ccc(-c3ccc4c(c3)CN(C(=O)N3CCC(O)(c5cccc(C(F)(F)F)c5)CC3)CCO4)cc2[nH]1 [Compound 18, methyl {6-[4-({4-hydroxy-4-[3-(trifluoromethyl)phenyl]piperidin-1-yl}carbonyl)-2,3,4,5-tetrahydro-1,4-benzoxazepin-7-yl]-1H-benzimidazol-2-yl}carbamate]
- IC50 [1]: 50 to 250 nM
- IC50 [2]: ≤ 75 nM

SMILES: N#CC1CCN(C(=O)N2CCOc3ccc(-c4ccc(-c5ncc[nH]5)nc4)cc3C2)CC1 [Compound 63, 1-({7-[6-(1H-imidazol-2-yl)pyridin-3-yl]-2,3-dihydro-1,4-benzoxazepin-4(5H)-yl}carbonyl)piperidine-4-carbonitrile]
- IC50 [1]: 50 to 250 nM
- IC50 [2]: 500 to 1000 nM

SMILES: COC(=O)Nc1nc2ncc(-c3ccc4c(c3)CN(C(=O)N3CCC(O)(CF)CC3)CCO4)cc2[nH]1 [Compound 38, methyl [6-(4-{[4-(fluoromethyl)-4-hydroxypiperidin-1-yl]carbonyl}-2,3,4,5-tetrahydro-1,4-benzoxazepin-7-yl)-1H-imidazo[4,5-b]pyridin-2-yl]carbamate]
- IC50 [1]: 50 to 250 nM
- IC50 [2]: 75 to 200 nM

SMILES: Cc1nc2ccc(-c3ccc4c(c3)CN(C(=O)N3CCC(F)(F)CC3c3ccccc3)CCO4)cc2[nH]1 (centres unmarked) [Compound 138, 4-[(4,4-difluoro-2-phenylpiperidin-1-yl)carbonyl]-7-(2-methyl-1H-benzimidazol-6-yl)-2,3,4,5-tetrahydro-1,4-benzoxazepine]
- IC50 [1]: 50 to 250 nM
- IC50 [2]: 500 to 1000 nM

SMILES: COC(=O)Nc1nc2ncc(-c3ccc4c(c3)CN(C(=O)N3CCC(C#N)CC3)CCO4)cc2[nH]1 [Compound 40, methyl (6-{4-[(4-cyanopiperidin-1-yl)carbonyl]-2,3,4,5-tetrahydro-1,4-benzoxazepin-7-yl}-1H-imidazo[4,5-b]pyridin-2-yl)carbamate]
- IC50 [1]: 50 to 250 nM
- IC50 [2]: 200 to 500 nM

SMILES: COC(=O)Nc1nc2ncc(-c3ccc4c(c3)CN(C(=O)N3CCC(=O)CC3c3ccc(F)c(F)c3)CCO4)cc2[nH]1 (centres unmarked) [Compound 39, methyl [6-(4-{[2-(3,4-difluorophenyl)-4-oxopiperidin-1-yl]carbonyl}-2,3,4,5-tetrahydro-1,4-benzoxazepin-7-yl)-1H-imidazo[4,5-b]pyridin-2-yl]carbamate]
- IC50 [1]: 50 to 250 nM
- IC50 [2]: ≤ 75 nM

SMILES: Cc1nc2cc(-c3ccc4c(c3)CN(C(=O)N3C[C@H]5CC(C)C[C@H]5C3)CCO4)ccc2[nH]1 (stereo partly drawn) [Compound 90, 7-(2-methyl-1H-benzimidazol-5-yl)-4-{[(3aR,6aS)-5-methylhexahydrocyclopenta[c]pyrrol-2(1H)-yl]carbonyl}-2,3,4,5-tetrahydro-1,4-benzoxazepine]
- IC50 [1]: 50 to 250 nM
- IC50 [2]: 200 to 500 nM

SMILES: Cc1nc2ccc(-c3ccc4c(c3)CN(C(=O)N3CCC(C)(C(N)=O)CC3)CCO4)cc2[nH]1 [Compound 135, 4-methyl-1-{[7-(2-methyl-1H-benzimidazol-6-yl)-2,3-dihydro-1,4-benzoxazepin-4(5H)-yl]carbonyl}piperidine-4-carboxamide]
- IC50 [1]: 50 to 250 nM
- IC50 [2]: 1000 to 3000 nM

SMILES: Cc1nc2ccc(-c3ccc4c(c3)CN(C(=O)N3CCC(=O)CC3c3cccc(F)c3)CCO4)cc2[nH]1 (centres unmarked) [Compound 125, 2-(3-fluorophenyl)-1-{[7-(2-methyl-1H-benzimidazol-6-yl)-2,3-dihydro-1,4-benzoxazepin-4(5H)-yl]carbonyl}piperidin-4-one]
- IC50 [1]: ≤ 50 nM
- IC50 [2]: 75 to 200 nM

SMILES: COC(=O)Nc1nc2ccc(-c3ccc4c(c3)CN(C(=O)N3CCC(C(F)F)CC3)CCO4)cc2[nH]1 [Compound 19, methyl [6-(4-{[4-(difluoromethyl)piperidin-1-yl]carbonyl}-2,3,4,5-tetrahydro-1,4-benzoxazepin-7-yl)-1H-benzimidazol-2-yl]carbamate]
- IC50 [1]: 50 to 250 nM
- IC50 [2]: 200 to 500 nM

SMILES: N#CC1CCN(C(=O)N2CCOc3ccc(-c4ccc(-c5ncc[nH]5)cc4)cc3C2)CC1 [Compound 61, 1-({7-[4-(1H-imidazol-2-yl)phenyl]-2,3-dihydro-1,4-benzoxazepin-4(5H)-yl}carbonyl)piperidine-4-carbonitrile]
- IC50 [1]: ≤ 50 nM
- IC50 [2]: 75 to 200 nM

SMILES: Cc1nc2ccc(-c3ccc4c(c3)CN(C(=O)N3CCCCC3c3ccc(C)c(F)c3)CCO4)cc2[nH]1 (centres unmarked) [Compound 123, 4-{[2-(3-fluoro-4-methylphenyl)piperidin-1-yl]carbonyl}-7-(2-methyl-1H-benzimidazol-6-yl)-2,3,4,5-tetrahydro-1,4-benzoxazepine]
- IC50 [1]: ≤ 50 nM
- IC50 [2]: 75 to 200 nM
